Reference: publication PMC10698726 (Molecular Pharmaceutics, 2023)
Like-named read-outs stand apart in the source and are kept apart here.

Experiments:
[1] = molecular target: T1, OCT3 (Homo sapiens, UniProt O75751); experiment: Inhibition of model substrate uptake in OCT3-overexpressing HEK293 cells; assay type: cell-based; details: for IC50: 2 μM ASP+ or ethambutol as model substrate
T1 construct: expressed in transfected cells; host or cells: HEK293
T1 sequence (O75751 1-556): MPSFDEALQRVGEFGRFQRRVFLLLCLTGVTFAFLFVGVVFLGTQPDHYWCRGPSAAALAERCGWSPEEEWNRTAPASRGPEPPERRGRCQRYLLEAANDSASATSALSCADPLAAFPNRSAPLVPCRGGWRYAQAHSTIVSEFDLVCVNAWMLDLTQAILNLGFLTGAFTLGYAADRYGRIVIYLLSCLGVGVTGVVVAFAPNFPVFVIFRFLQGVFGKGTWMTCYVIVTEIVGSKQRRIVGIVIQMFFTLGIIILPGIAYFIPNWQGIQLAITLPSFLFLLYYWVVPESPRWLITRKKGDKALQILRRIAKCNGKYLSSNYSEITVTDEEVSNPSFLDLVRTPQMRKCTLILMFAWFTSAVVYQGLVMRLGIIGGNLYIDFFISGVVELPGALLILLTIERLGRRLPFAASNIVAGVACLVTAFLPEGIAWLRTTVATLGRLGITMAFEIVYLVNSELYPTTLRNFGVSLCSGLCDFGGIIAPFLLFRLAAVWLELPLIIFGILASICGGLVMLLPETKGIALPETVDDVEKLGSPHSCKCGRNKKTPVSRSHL
Method in brief: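 IC50 values were fitted with a Hill equation from net uptake, calculated as uptake in overexpressing HEK293 cells minus empty-vector control uptake. Cells were exposed for 5 min to 2 μM model substrate alone, with 20 μM inhibitor, or with a concentration series. Uptake was quantified by ASP^+ fluorescence or LC–MS/MS after lysis in 80% acetonitrile.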

[2] = molecular target: T1, OCT3; experiment: Concentration-dependent uptake of model substrates, OCT3-overexpressing HEK293 cells; assay type: in vitro ADME; details: vmax over Km, this study
Protocol: Koepsell and Gorbulev (University of Würzburg, Germany).
Prior to inhibition studies, the used model substrates were validated in concentration-dependent uptake experiments if no literature data were available (Table S2 and Figures S2 and S3). Thereby, we ensured that the model substrate concentration used in the subsequent inhibition experiments was sufficiently below the Km value of its uptake kinetics. […] On the day of the experiment, the cells were washed once with prewarmed to 37 °C HBSS (Thermo Fisher Scientific, Darmstadt, Germany) supplemented with 10 mM HEPES and pH adjusted to 7.4 (Sigma-Aldrich)—hereafter termed HBSS+. For concentration-dependent experiments, the cells were incubated with increasing substrate concentrations for 2 min. Uptake was terminated by adding ice-cold HBSS+. Afterward, the cells were washed twice with ice-cold HBSS+, and cell lysis was done with 80% (v/v) acetonitrile (LGC Standards, Wesel, Germany) to which an internal standard for eventual LC–MS/MS analysis had been added. Intracellularly accumulated substrates were then quantified by LC–MS/MS analysis, and calibration was performed with known concentrations of the respective substances. All uptake data were normalized to the number of seeded cells by measuring the total protein content in radioimmunoprecipitation assay buffer-lysed cells in a bicinchoninic acid assay.[29]

[3] = HEK293, 5 min, read-out: (S,S)-Ethambutol inhibition [%], OCT3, 20 μM inhibitor, 2 μM (S,S)-ethambutol, 5 min
[4] = HEK293, OCT3, 20 μM inhibitor, 2 μM ASP+, 5 min, read-out: ASP+ inhibition [%]

| Structure (SMILES) | inhibition at 20 µM [1, 3] [%] | inhibition at 20 µM [1, 4] [%] | IC50 ([1]; OCT3, Table S5, 5 min, read-out: IC50) [µM] | fold more potent in the inhibition of OCT3 than the respective counterpart ([1]; OCT3, label = the more potent enantiomer) [fold] | Clint ± SEM [2] | inhibition at 20 µM ([1]; HEK293, 5 min, read-out: (S)-Zolmitriptan inhibition [%], OCT3, 20 μM inhibitor, 2 μM (S)-zolmitriptan, 5 min) [%] | IC50 ([1]; IC50, OCT3, Table S5, 5 min) [µM] | Stereoselectivity (x-fold for the named isomer) ([1]; OCT3, Table S5, ratio of the IC50 values of both isomers, label = isomer named in the cell (as a rule the one with the higher IC50)) [fold] | (S)-Zolmitriptan inhibition [%] ([1]; OCT3, 20 μM inhibitor, 2 μM (S)-zolmitriptan, 5 min) |
| --- | --- | --- | --- | --- | --- | --- | --- | --- | --- |
| CN(C)CCc1c[nH]c2ccc(C[C@H]3COC(=O)N3)cc12 [(S)-Zolmitriptan] | 55 | 38.5 | 17.3 | 25 | 24.0 | – | – | – | – |
| CCCN[C@H]1CCc2nc(N)sc2C1 [(S)-Pramipexole] | 30.2 | 6.1 | – | – | – | 18.4 | – | – | – |
| CCN(CC)CC#CCOC(=O)[C@](O)(c1ccccc1)C1CCCCC1 [(R)-Oxybutynine] | 64.7 | 31.3 | – | – | – | – | 65 | 1.6 | 42.2 |
